In US9345691B2, “Beta-lactam compounds for enhancing T cell-mediated immune responses” (STEM CELL MEDICINE LTD., priority 2011, dated 2016):
“Also recorded” adds a separate entry of the source.

Assays:
CD4+ human T cells = experiment: Human Autoimmune and Inflammatory Response Gene Array, anti-CD3 stimulated T cells; type: cell-based; details: 120 min anti-CD3; for % decrease by Cef.: cefuroxime 50 μg/ml, ±SD, relative to control
Procedure: T cells were purified from the peripheral bloods of healthy human donors (Blood Bank, Sheba Medical center). The whole blood was incubated (20 min, 22° C.) with RosetteSep™ human T cell enrichment mixture (StemCell Technologies, Vancouver, Canada). The remaining unsedimented cells were then loaded onto lymphocyte separation medium (ICN Biomedicals, Irvine, Calif.), isolated by density centrifugation, and washed with PBS. […] In a second round of purification, CD3^+ T cells were labeled for selection with a magnetically coupled mAb against CD4 (Miltenyi Biotec, Auburn, Calif.).
Human CD4 T cells were isolated as described, and incubated in 24 well plates (Nunc), 4×10^6 cells/ml with plate bound anti-human CD3 (OKT3) at 2 μg/ml. The stimulation was performed in RPMI medium supplemented with 0.1% BSA. […] RNA was extracted from samples and used to prepare probes for gene array in accord with the manufacturer's instructions (SuperArray Bioscience, Frederick, Md.). Adequate labeling of the probes was tested before hybridization. Three healthy donors were tested in stimulation with cefuroxime. The membranes were analyzed online with the Image Data Acquisition and Expression Analysis (SuperArray Bioscience).
The Human Autoimmune and Inflammatory Response Gene Array (SuperArray Bioscience corporation, Frederick, Md., USA) was used for analysis of gene expression by the T cells. This array contains 367 genes including cytokines, chemokines and their receptors, transcription factors and signaling proteins. […] Analysis of the results was performed using the GEArray analysis program (www.SuperArray.com). […] To verify the results detected by the gene array study, a panel of six genes was designed and tested by real-time PCR: CCR4, ACVR2, JAK1, STAT4, TLR2 and NFKBIE. The cDNA that was used was prepared from the same RNA used for the gene array experiment.

[1] = system: encephalitogenic BP10 T-cell line; experiment: Adoptive EAE by BP10 line stimulated in vitro with test substance; type: in vivo, rat
Source text: The ability of a compound to enhance T cell activity may be determined, for example, using an in vivo assay testing the effect of a given compound on the severity of adoptive (passive) EAE, namely, EAE which is induced by the injection of activated encephalitogenic T cell line to the model animal. In order to test a compound, the encephalitogenic T cells are activated in the presence of the compound prior to injection. An exemplary procedure is described in the Examples section hereinbelow.
Antigen-specific T-cell lines were established from lymph node cells that had been stimulated with myelin basic protein (MBP; 10 μg/ml) for 3 days in stimulation medium as described below. Following stimulation, the T-cell blasts were isolated on Lympho-prep (Nycomed Pharma, Oslo, Norway) and seeded in propagation medium. Propagation medium was identical to stimulation medium without autologous serum, but supplemented with fetal calf serum 10% and T-cell growth factors from the supernatant of Con A stimulated spleen cells 10% (Mor et al. (1990) J Clin Invest, 85, 1594-1598). Animals were injected intra-peritoneally with 10^7 MBP-stimulated T cells, following 6-8 cycles of in vitro stimulations. It is known that MBP-reactive lines undergo a reduction in pathogenicity after 6 or more in vitro stimulations. In some experiments the BP10 line was stimulated with phorbol myristate acetate (PMA; 50 ng/ml) and ionomycin (500 ng/ml) for 3 days in stimulation medium, without antigen-presenting cells.
Active EAE was induced by subcutaneous injection of 25 μg guinea-pig MBP (GpMBP) in complete Freund's adjuvant (CFA). CFA was prepared by adding 4 mg/ml Mycobacterium tuberculosis H37Ra (Difco, Mich.) to incomplete Freund's adjuvant (IFA). Adoptive EAE was transferred by intra-peritoneal injection of guinea-pig MBP-activated cells of the BP10 line as described in Mor et al. (1993) J Clin Invest, 92, 2199-2206. […] Clinical scoring was: +1, paralysis of tail; +1.5, paresis of posterior paws and ataxia; +2, paraplegia; +3, paralysis extending to thoracic spine; +4, a moribund state.
Treatment with cefuroxime in vivo could affect many different host agents involved in EAE or AA as well as influencing the rats' bacterial flora. To test whether the antibiotic might directly modify the behavior of effector T cells, an encephalitogenic T-cell line was stimulated in the presence or absence of cefuroxime in vitro. The weakly encephalitogenic BP10 line was used, and was stimulated for 3 days with MBP in the presence or absence of cefuroxime (50 μg/ml). The activated T cells were then washed to remove the antibiotic, the T cells were injected intra-peritoneally into naïve recipient rats (10^7 per rat), and EAE was scored. The BP10 line at later stimulations was used, when its pathogenic potential is reduced, allowing to detect both suppression and enhancement of disease. […] To rule out antigen presenting cells (APC) as the target of the beta-lactam antibiotic, the encephalitogenic BP10 line was stimulated without APC using PMA (50 ng/ml) and Ionomycin (500 ng/ml) in the presence or absence of cefuroxime.

SMILES: CO/N=C(\C(=O)N[C@@H]1C(=O)N2C(C(=O)O)=C(COC(N)=O)CS[C@H]12)c1ccco1 [cefuroxime]
- number of genes down-regulated (CD4+ human T cells; array of 367 genes, 50 μg/ml): Fifty-seven
- % decrease by Cef. (CD4+ human T cells; gene ACTB): 49 ± 11%
- % decrease by Cef. (CD4+ human T cells; gene ACVR1): 42 ± 0.7%
- % decrease by Cef. (CD4+ human T cells; gene ACVR2): 60 ± 14.8%
- % decrease by Cef. (CD4+ human T cells; gene CCL5): 21 ± 5.6%
- % decrease by Cef. (CD4+ human T cells; gene CCL11): 18 ± 6.6%
- % decrease by Cef. (CD4+ human T cells; gene CCR4): 39 ± 2%
- % decrease by Cef. (CD4+ human T cells; gene CCR6): 53 ± 5.6%
- % decrease by Cef. (CD4+ human T cells; gene CCR7): 38 ± 8.1%
- % decrease by Cef. (CD4+ human T cells; gene CD28): 51 ± 2.1%
- % decrease by Cef. (CD4+ human T cells; gene CD40LG): 33 ± 7.1%
- % decrease by Cef. (CD4+ human T cells; gene CREB1): 19 ± 4.9%
- % decrease by Cef. (CD4+ human T cells; gene CREBBP): 40 ± 9.9%
- % decrease by Cef. (CD4+ human T cells; gene CXCL10): 39 ± 3%
- % decrease by Cef. (CD4+ human T cells; gene EGR3): 38 ± 2.8%
- % decrease by Cef. (CD4+ human T cells; gene GFI1): 45 ± 14%
- % decrease by Cef. (CD4+ human T cells; gene HRAS): 30 ± 9.8%
- % decrease by Cef. (CD4+ human T cells; gene IL1B): 54 ± 7.0%
- % decrease by Cef. (CD4+ human T cells; gene IL2RB): 50 ± 9.9%
- % decrease by Cef. (CD4+ human T cells; gene IL2RG): 57 ± 9.8%
- % decrease by Cef. (CD4+ human T cells; gene IL9R): 27.5 ± 3%
- % decrease by Cef. (CD4+ human T cells; gene IL16): 50 ± 7.8%
- % decrease by Cef. (CD4+ human T cells; gene IRAK1): 44 ± 2.1%
- % decrease by Cef. (CD4+ human T cells; gene JAK1): 53 ± 13.4%
- % decrease by Cef. (CD4+ human T cells; gene JUN): 49 ± 2.2%
- % decrease by Cef. (CD4+ human T cells; gene LTA): 17 ± 10%
- % decrease by Cef. (CD4+ human T cells; gene MAP2K4): 52 ± 14.1%
- % decrease by Cef. (CD4+ human T cells; gene MAP3K1): 53 ± 12%
- % decrease by Cef. (CD4+ human T cells; gene MAP3K2): 36 ± 12%
- % decrease by Cef. (CD4+ human T cells; gene MAP3K7): 46 ± 9.9%
- % decrease by Cef. (CD4+ human T cells; gene MAPK9): 42 ± 10.9%
- % decrease by Cef. (CD4+ human T cells; gene NFKB1): 43 ± 3.5%
- % decrease by Cef. (CD4+ human T cells; gene NFKB2): 53 ± 10.6%
- % decrease by Cef. (CD4+ human T cells; gene NFKBIE): 63 ± 11%
- % decrease by Cef. (CD4+ human T cells; gene NFKBIL1): 54 ± 12.5%
- % decrease by Cef. (CD4+ human T cells; gene PAK1): 40 ± 2.4%
- % decrease by Cef. (CD4+ human T cells; gene PIN1): 45 ± 12.1%
- % decrease by Cef. (CD4+ human T cells; gene RANBP5): 33 ± 3.5%
- % decrease by Cef. (CD4+ human T cells; gene REL): 45 ± 1.9%
- % decrease by Cef. (CD4+ human T cells; gene RFX5): 36 ± 4.2%
- % decrease by Cef. (CD4+ human T cells; gene RFXAP): 27 ± 12%
- % decrease by Cef. (CD4+ human T cells; gene SDF2): 28 ± 12%
- % decrease by Cef. (CD4+ human T cells; gene SELL): 46 ± 7.0%
- % decrease by Cef. (CD4+ human T cells; gene SMAD4): 47 ± 7.0%
- % decrease by Cef. (CD4+ human T cells; gene SMAD7): 47 ± 4.2%
- % decrease by Cef. (CD4+ human T cells; gene SP3): 39 ± 9.9%
- % decrease by Cef. (CD4+ human T cells; gene SRF): 38 ± 1.9%
- % decrease by Cef. (CD4+ human T cells; gene STAT1): 32 ± 11%
- % decrease by Cef. (CD4+ human T cells; gene STAT4): 47 ± 9.3%
- % decrease by Cef. (CD4+ human T cells; gene STAT6): 47 ± 7.9%
- % decrease by Cef. (CD4+ human T cells; gene TGFBR3): 44 ± 3.5%
- % decrease by Cef. (CD4+ human T cells; gene TGIF): 43 ± 3.5%
- % decrease by Cef. (CD4+ human T cells; gene TLR2): 52 ± 14%
- % decrease by Cef. (CD4+ human T cells; gene TNFRSF11A): 43 ± 2%
- % decrease by Cef. (CD4+ human T cells; gene TNFα): 29 ± 8.5%
- % decrease by Cef. (CD4+ human T cells; gene TRAF5): 43 ± 2.2%
- % decrease by Cef. (CD4+ human T cells; gene TRAF6): 43 ± 3.5%
- % decrease by Cef. (CD4+ human T cells; gene YY1): 23 ± 9.1%
- severity of adoptive EAE ([1]; BP10 line stimulated 3 days with MBP in presence of 50 μg/ml, 10^7 cells IP per rat): markedly enhanced the manifestations of EAE; also recorded: enhanced EAE severity; also recorded: enhances the pathogenicity of the BP10 line
- severity of adoptive EAE ([1]; BP10 line stimulated without APC using PMA (50 ng/ml) and Ionomycin (500 ng/ml)): significantly more severe
- severity of adoptive EAE ([1]; dose-response, BP10 line stimulated in presence of 5 μg/ml): ineffective
- severity of adoptive EAE ([1]; dose-response, BP10 line stimulated in presence of 25 μg/ml): enhancing effect similar to that of 50 μg/ml
